Target: T1, human pancreatic lipase (hPL) (Homo sapiens, UniProt P16233)
T1 sequence (P16233 17-465): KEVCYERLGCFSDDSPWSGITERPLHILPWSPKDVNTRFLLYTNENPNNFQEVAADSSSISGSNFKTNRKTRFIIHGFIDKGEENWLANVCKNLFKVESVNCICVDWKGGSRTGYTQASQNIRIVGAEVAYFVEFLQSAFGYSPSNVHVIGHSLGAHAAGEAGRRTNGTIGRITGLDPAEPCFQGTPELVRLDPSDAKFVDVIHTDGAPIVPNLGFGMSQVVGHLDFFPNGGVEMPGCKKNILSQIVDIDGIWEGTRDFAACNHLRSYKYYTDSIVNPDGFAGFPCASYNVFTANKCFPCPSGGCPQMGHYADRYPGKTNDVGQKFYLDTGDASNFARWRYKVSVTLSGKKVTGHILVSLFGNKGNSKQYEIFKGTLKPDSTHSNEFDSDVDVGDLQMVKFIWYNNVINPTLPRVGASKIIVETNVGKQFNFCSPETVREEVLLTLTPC
Assay: Inhibition assay on human pancreatic lipase (substrate DDAO-ol)
Type: biochemical
Conditions: 10 μM, selectivity screening
Description: 1. Detailed experimental, materials, and methods
The household library of covalent fragments including D and F was from Organic Chemistry […]
Fig. S1. Partial fragment molecules of a household library targeting to serine.
Commercially available materials were ordered from commercial suppliers (Bidepharm, Shanghai, China) and used without further purification. Structures were checked by 1H- and 13C-NMR spectra on a Bruker AVANCE 600/125 MHz instrument for confirmation, using DMSO- d6 or CDCl 3 as the solvent. Molecular orbitals were calculated using Gaussian 09W and image generated by GaussView 6.0.1
Inhibition assay on hCES1A
In this study, a known bioluminogenic probe substrate NLMe was used for human carboxylesterase 1 (hCES1A) inhibition assays. […]
The luminescence signals were monitored in the microplate reader (SpectraMax iD3Molecular […]
Human carboxylesterase 2 (hCES2A) inhibition assays were conducted using FD, a known fluorescent substrate. […] The fluorescent signals (excitation/emission, 480 nm/525 nm) were continuously recorded by a microplate reader (SpectraMax iD3Molecular Devices, Austria). […]
fluorogenic probe. […] The fluorescent signals of hydrolytic product were quantified by using the microplate reader (Spectra Max M4, Austria), with the wavelength of 600 nm and 660 nm for excitation and emission, respectively. […]

SMILES | response to hPL
O=S(=O)(F)c1ccc(Br)cc1 [D, 4-bromobenzenesulfonyl fluoride] | no potent responses
O=C(c1ccccc1)C(F)(F)F [F, 2,2,2-trifluoroacetophenone] | no potent responses
